In patent publication US7910559B2, “Decladinosyl-macrolides with anti-inflammatory activity” (GlaxoSmithKline istrazivacki centar Zagreb d.o.o., priority 2005, dated 2011):

Columns and labels:
Type in all cases: cell-based
[1] = test system: human IL-8; test: Inhibition of IL-8 production by stimulated human peripheral blood leukocytes in vitro (ELISA); conditions: PBL
Protocol: (§1) Substances, used in in vitro experiments, were dissolved in dimethyl sulfoxide (DMSO) (Kemika, Croatia) at concentrations of 50 mM and 10 mM and were further diluted to the final concentrations of […] in 1 mL Dulbecco's modified Eagle medium (DMEM) supplemented with 1% heat inactivated fetal bovine serum (FBS), 1% glutamax, 50 U/ml penicillin, 50 μg/ml streptomycin and 2.5 μg/mL Fungizone (amphotericin B). Media and all media supplements were purchased from Gibco, Australia, except FBS that was from Sigma, USA.
(§2) Peripheral blood leukocytes (PBL) were obtained from venous blood of healthy volunteers by sedimentation on 2% dextran T-500 (Amersham Biosciences, USA) and subsequent centrifugations of leukocyte-rich plasma.
(§3) Peripheral blood leukocytes (PBL), isolated as described above, were seeded in a 48-well plate at a concentration of 3-5×10^6 cell per well in culture medium consisting of RPMI 1640 medium (Institute of Immunology, Croatia) supplemented with 10% heat-inactivated fetal calf serum (FCS, Biowhittaker, USA), 100 U/ml penicillin (Gibco, Australia), 100 μg/ml streptomycin (Gibco, Australia) and 2 mM L-glutamine (Gibco, Australia), and preincubated with the tested compounds for 2 h at 37° C., in an atmosphere of 5% CO2, and 90% humidity. Afterwards, stimuli (Sigma, USA) were added to a final concentration of 2 μg/mL lipopolysaccharide (LPS), 1 μg/mL phorbol 12-myristate 13-acetate (PMA) or 120 μg/mL zymosan. Samples were incubated overnight under conditions described above. At the end of incubation supernatants were transferred to eppendorf tubes and centrifuged for 10 min at 1500 g. Concentrations of human TNF-α, IL-1β, IL-6 and IL-8 were determined in cell supernatants by sandwich ELISA, using capture and detection antibodies (R&D, USA) according to manufacturer's recommendations.
(§4) Inhibition (as percentage) was calculated using the following formula: % inhibition=(1−concentration of cytokines in sample/concentration of cytokines in positive control)×100 where “positive control” refers to stimulated samples not treated with substances.

[2] = test system: human TNF-α; test: Inhibition of TNF-α production by stimulated human peripheral blood leukocytes in vitro (ELISA); conditions: PBL
Protocol: as §1, §2, §3, §4

[3] = test system: human IL-6; test: Inhibition of IL-6 production by stimulated human peripheral blood leukocytes in vitro (ELISA); conditions: PBL
Protocol: as §1, §2, §3, §4

[4] = test system: human IL-1β; test: Inhibition of IL-1β production by stimulated human peripheral blood leukocytes in vitro (ELISA); conditions: PBL
Protocol: as §1, §2, §3, §4

[5] = test system: human peripheral blood mononuclear cells (PBMC); test: Human peripheral blood mononuclear cell proliferation in vitro ((3H)thymidine incorporation)
Protocol: as §1
Heparinized peripheral blood was obtained from healthy donors, and peripheral blood mononuclear cells (PBMC) were isolated by Histopaque 1077 (Sigma, USA) density centrifugation at 400 g for 30 minutes. Collected PBMC were centrifuged in plasma at 400 g/10 min, resuspended and washed in RPMI 1640 (Institute of Immunology, Croatia) by centrifugation.
Influence of substances at two different concentrations (50 μM and 10 μM) on proliferation of human peripheral blood mononuclear cells (PBMC) was assessed.
Heparinized peripheral blood was obtained from healthy donors, and PBMC were isolated by Histopaque 1077 (Sigma, USA) density centrifugation at 400 g for 30 minutes. 5×10^4 cells/well were cultured for 3 days in the RPMI medium as described above, in the presence (positive control) or absence (negative control) of stimulators [PHA (2.5 μg/mL) (Sigma, USA) or both PMA (10 ng/mL) (Sigma, USA) and ionomycin (500 ng/mL) (Calbiochem, USA)] and tested substances at 37° C. in 5% CO2 and 90% humidity. The cells were pulsed with 1 μCi of (^3H)thymidine (Amersham, USA) per well during the last 18 h of the cultures and were harvested on a 96-well filter (Packard Bioscience, USA) with a multiple cell harvester (Packard, USA). The incorporation of (^3H)thymidine in activated cells was measured by TopCount NXT (Packard, USA).
Inhibition of cell proliferation (as a percentage) was calculated using the following formula: % inhibition=(1−(^3H)thymidine incorporation expressed in counts per minute (cpm) in sample/(3H)thymidine incorporation expressed in cpm in positive control)×100 where “positive control” refers to stimulated samples not treated with substances.

[6] = LPS stimulation, compound 10 μM
[7] = LPS stimulation, compound 50 μM
[8] = PMA stimulation, compound 10 μM
[9] = PMA stimulation, compound 50 μM
[10] = zymosan stimulation, compound 10 μM
[11] = zymosan stimulation, compound 50 μM

## 3-O-(3-Diethylamino-propionyl)-3-O-decladinosyl-6-O-methyl-9a-aza-9a-homoerythromycin A [Example 2]
[1]; [6]
  Percentage of inhibition of IL-8 production: 40%
[1]; [7]
  Percentage of inhibition of IL-8 production: 96%
[1]; [8]
  Percentage of inhibition of IL-8 production: 0%
[1]; [9]
  Percentage of inhibition of IL-8 production: 92%
[1]; [10]
  Percentage of inhibition of IL-8 production: 32%
[1]; [11]
  Percentage of inhibition of IL-8 production: 87%
[2]; [6]
  Percentage of inhibition of TNF-α production: 37%
[2]; [7]
  Percentage of inhibition of TNF-α production: 80%
[2]; [8]
  Percentage of inhibition of TNF-α production: 34%
[2]; [9]
  Percentage of inhibition of TNF-α production: 55%
[2]; [10]
  Percentage of inhibition of TNF-α production: 13%
[2]; [11]
  Percentage of inhibition of TNF-α production: 60%
[3]; [6]
  Percentage of inhibition of IL-6 production: 40%
[3]; [7]
  Percentage of inhibition of IL-6 production: 94%
[3]; [8]
  Percentage of inhibition of IL-6 production: 17%
[3]; [9]
  Percentage of inhibition of IL-6 production: 68%
[3]; [10]
  Percentage of inhibition of IL-6 production: 45%
[3]; [11]
  Percentage of inhibition of IL-6 production: 91%
[4]; [6]
  Percentage of inhibition of IL-1β production: 83%
[4]; [7]
  Percentage of inhibition of IL-1β production: 91%
[4]; [8]
  Percentage of inhibition of IL-1β production: 60%
[4]; [9]
  Percentage of inhibition of IL-1β production: 78%
[4]; [10]
  Percentage of inhibition of IL-1β production: 96%
[4]; [11]
  Percentage of inhibition of IL-1β production: 94%
[5]; PHA stimulation, compound 10 μM
  Percentage of inhibition of proliferation of stimulated PBMC: 80%
[5]; PHA stimulation, compound 50 μM
  Percentage of inhibition of proliferation of stimulated PBMC: 98%
[5]; PMA + ionomycin stimulation, compound 10 μM
  Percentage of inhibition of proliferation of stimulated PBMC: 0%
[5]; PMA + ionomycin stimulation, compound 50 μM
  Percentage of inhibition of proliferation of stimulated PBMC: 99%
